Drawing on ChEMBL document CHEMBL4665836, “Overcoming β-Lactam resistance in Pseudomonas aeruginosa using non-canonical tobramycin-based antibiotic adjuvants” (2020), this text covers MIC for 1 molecule.

Holding throughout (format): functional
For experiment [1], the system named is Pseudomonas aeruginosa. Briefly: Potentiation of aztreonam-induced antibacterial activity against carbapenem-resistant Pseudomonas aeruginosa 107092 clinical isolate assessed as aztreonam MIC at 8.7 uM by checkerboard assay (reference value: 64 ug/ml).
Experiment [2] deals with Pseudomonas aeruginosa. Briefly: Potentiation of aztreonam-induced antibacterial activity against carbapenem and colistin-resistant Pseudomonas aeruginosa 101243 clinical isolate assessed as aztreonam MIC at 8.7 uM by checkerboard assay (reference value: 32 ug/ml).
For experiment [3], the system named is Pseudomonas aeruginosa. The experiment in a line: Potentiation of ceftazidime-induced antibacterial activity against carbapenem-resistant Pseudomonas aeruginosa PAO200 harboring and mexAB-oprM efflux deficient mutant assessed as ceftazidime MIC at 8.7 uM by checkerboard assay (reference value: 1 ug/ml).
Experiment [4] has as its system Pseudomonas aeruginosa. The experiment in a line: Potentiation of ceftazidime-induced antibacterial activity against carbapenem and colistin-resistant Pseudomonas aeruginosa 91433 clinical isolate assessed as ceftazidime MIC at 8.7 uM by checkerboard assay (reference value: 4 ug/ml).
Experiment [5] deals with Pseudomonas aeruginosa. The experiment in a line: Potentiation of ceftazidime-induced antibacterial activity against carbapenem-resistant Pseudomonas aeruginosa 107092 clinical isolate assessed as ceftazidime MIC at 8.7 uM by checkerboard assay (reference value: 128 ug/ml).
For experiment [6], the system named is Pseudomonas aeruginosa. The experiment in a line: Potentiation of ceftazidime-induced antibacterial activity against carbapenem-resistant Pseudomonas aeruginosa 108590 clinical isolate assessed as ceftazidime MIC at 8.7 uM by checkerboard assay (reference value: 32 ug/ml).
Experiment [7] relates to Pseudomonas aeruginosa. Briefly: Potentiation of aztreonam-induced antibacterial activity against carbapenem-resistant Pseudomonas aeruginosa PAO200 harboring and mexAB-oprM efflux deficient mutant assessed as aztreonam MIC at 8.7 uM by checkerboard assay (reference value: 0.25 ug/ml).
The test system of experiment [8] is Pseudomonas aeruginosa. The experiment in a line: Potentiation of aztreonam-induced antibacterial activity against carbapenem-resistant Pseudomonas aeruginosa 262-101856 clinical isolate assessed as aztreonam MIC at 8.7 uM by checkerboard assay (reference value: 32 ug/ml).
In experiment [9] the test system is Pseudomonas aeruginosa. Briefly: Potentiation of ceftazidime-induced antibacterial activity against carbapenem-resistant Pseudomonas aeruginosa 88949 clinical isolate assessed as ceftazidime MIC at 8.7 uM by checkerboard assay (reference value: 64 ug/ml).
The subject of experiment [10] is Pseudomonas aeruginosa. Briefly: Potentiation of aztreonam-induced antibacterial activity against carbapenem-resistant Pseudomonas aeruginosa 100036 clinical isolate assessed as aztreonam MIC at 8.7 uM by checkerboard assay (reference value: 16 ug/ml).
In experiment [11] the test system is Pseudomonas aeruginosa. Briefly: Potentiation of ceftazidime-induced antibacterial activity against carbapenem-resistant Pseudomonas aeruginosa 262-101856 clinical isolate assessed as ceftazidime MIC at 8.7 uM by checkerboard assay (reference value: 16 ug/ml).
Experiment [12] has as its system Pseudomonas aeruginosa. The experiment in a line: Potentiation of aztreonam-induced antibacterial activity against carbapenem-resistant Pseudomonas aeruginosa 88949 clinical isolate assessed as aztreonam MIC at 8.7 uM by checkerboard assay (reference value: 32 ug/ml).

As to `NC[C@H]1O[C@H](O[C@H]2[C@H](OCCCCCCCCN3CCCNCCNCCCNCC3)[C@@H](O[C@H]3O[C@H](CO)[C@@H](O)[C@H](N)[C@H]3O)[C@H](N)C[C@@H]2N)[C@H](N)C[C@@H]1O.O=C(O)C(F)(F)F.O=C(O)C(F)(F)F.O=C(O)C(F)(F)F.O=C(O)C(F)(F)F.O=C(O)C(F)(F)F.O=C(O)C(F)(F)F.O=C(O)C(F)(F)F.O=C(O)C(F)(F)F.O=C(O)C(F)(F)F`, the minimum inhibitory concentration (MIC) in the experiment with Pseudomonas aeruginosa [1] was 16 µg/mL; in the experiment with Pseudomonas aeruginosa [2] it was 8 µg/mL; in the experiment on Pseudomonas aeruginosa [3], 0.06 µg/mL; in the experiment with Pseudomonas aeruginosa [4], 2 µg/mL; in the experiment with Pseudomonas aeruginosa [5] it was 32 µg/mL; with Pseudomonas aeruginosa [6], 8 µg/mL. The MIC in the experiment on Pseudomonas aeruginosa [7] amounted to 0.02 µg/mL; in the experiment with Pseudomonas aeruginosa [8] it was 8 µg/mL; with Pseudomonas aeruginosa [9], 16 µg/mL; in the experiment with Pseudomonas aeruginosa [10], 2 µg/mL; in the experiment on Pseudomonas aeruginosa [11] it was 4 µg/mL; with Pseudomonas aeruginosa [12], 16 µg/mL.
